“Also recorded” adds a separate entry of the source.
Key:
Type in all cases: cell-based, human
A38Lg compared to A38Per = assay: MTT cell viability assay
Method: (§1) Tissue samples and cell lines were previously collected from PDAC patients by rapid autopsy, sequenced-validated, and monitored for mycoplasma as previously described. Low passage (2-17) rapid autopsy cell lines were cultured at 37° C. in DMEM with 10% fetal bovine serum (FBS, Gibco). For MTT assays, 15,000 cells/well were plated into 96 well plates in triplicate, treated 12 hours later, and assayed after 24 hr (glucose responses) or 6 days (chemotherapy) with CellTiter96 (Promega). For glucose response assays, nutrient-deplete DMEM (no glucose, glutamine, pyruvate, or serum) was used with addition of glucose as indicated. For glucose-dependent oxidative stress analysis, cells plated in triplicate and grown to 80% confluence followed by incubation in nutrient-deplete DMEM containing 10% dialyzed FBS with or without 10 mM glucose and 1 mM H2O2 for 24 hours. Cells were then washed with PBS, trypsinized, and viable cells counted with a hemocytometer. Glucose uptake and lactate secretion were measured with a YSI 7100 Bioanalyzer as described in the supplementary methods. For ^13C-1,2 glucose tracing and steady state metabolite profiling, the Q Exactive MS (QE-MS; Thermo Scientific) coupled to liquid chromatography (LC Ultimate 3000 UHPLC) was used for metabolite separation and detection as previously described. Detailed conditions are provided in the supplementary methods.

[1] = tested on: distant metastatic subclones; assay: Glucose-dependent oxidative stress analysis (viable cell counts), distant metastatic subclones; details: 1 mM H2O2, 24h, glucose not present in the media
Method: as §1

normal HPDE cells = assay: Glucose-dependent oxidative stress analysis (viable cell counts), HPDE; details: 1 mM H2O2, 24h, with or without 10 mM glucose
Method: as §1

[2] = tested on: local-regional PDAC samples; assay: Glucose-dependent oxidative stress analysis (viable cell counts), local-regional PDAC; details: 1 mM H2O2, 24h, with or without 10 mM glucose
Method: as §1

[3] = tested on: global chromatin modifications in peritoneal subclone (A38Per), normal cells (HPDE, fibroblast) and local-regional PDACs; assay: Western blots of histone modifications, peritoneal subclone, normal cells and local-regional PDACs; details: peritoneal subclone
Method: Histones were acid extracted as described and western blots performed on 3.5 ug histones, which were checked by Ponceau stains prior to western blot to ensure equal loading. Densitometry was performed with ImageJ software. RNA was extracted with Trizol reagent (Life Technologies) and isopropanol precipitated. Genomic DNA was purified with MasterPure DNA extraction reagents (Epicenter). Immunohistochemistry, H&E staining, and immunofluorescence on formalin-fixed, paraffin-embedded (FFPE) tissue microarray sections (TMAs) were performed according to standard procedures.
RNAi experiments were performed with siRNA transfections (Oligofectamine, Life Technologies) using negative control siRNA (Sigma, SIC001) and pre-designed siRNA oligonucleotides against indicated genes in parallel (Sigma, PGD: SASI_Hs02 00334150, CDH2: SASI_Hs01_00153995, TOP2B: SASI_Hs02_00311874). siRNAs against mutant KRAS^G12V (CUACGCCAACAGCUCCAAC) (SEQ ID NO:1) were custom designed. Cells were incubated with siRNAs for 4 days after transfection and harvested. For drug treatments in 2-D, cells were grown to 70-80% confluency and treated for 3 days with 250 uM 6AN or DMSO negative control.

Row | Compound | cell viability (MTT) under H2O2-mediated oxidative stress (A38Lg compared to A38Per) | normalized cell counts after H2O2 [1] | normalized cell counts after H2O2 (normal HPDE cells) | normalized cell counts after H2O2 [2] | cell viability (MTT) under gemcitabine (A38Lg compared to A38Per; assayed after 6 days) | induction of loss of methylation or gain of acetylation (reprogrammed histone modifications) by chemotherapy [3]
1 | OO [H2O2] | highly resistant; also recorded: remarkably resistant | sensitive to H2O2 when glucose was not present | sensitive to H2O2 under either glucose condition | resistant to H2O2 irrespective of glucose availability | – | –
2 | Nc1ccn([C@@H]2O[C@H](CO)[C@@H](O)C2(F)F)c(=O)n1 [gemcitabine, Gemcitabine] | – | – | – | – | highly resistant; also recorded: completely resistant | did not induce

From patent publication US11795510B2, “Identification of epigenomic reprogramming in cancer and uses thereof” (The Johns Hopkins University, priority 2016, dated 2023)
